{
  "source": "ChEMBL document CHEMBL1201862",
  "about": "“PubChem BioAssay data set” (2004)",
  "test_in_all_cases": "growth of human tumour cells (NCI), 48 h",
  "key": {"786-0": {"system": "786-0"}, "A498": {"system": "A498"}, "A549": {"system": "A549"}, "ACHN": {"system": "ACHN"}, "BT-549": {"system": "BT-549"}, "CAKI-1": {"system": "CAKI-1"}, "CCRF-CEM": {"system": "CCRF-CEM"}, "COLO 205": {"system": "COLO 205"}, "DU-145": {"system": "DU-145"}, "HCT-116": {"system": "HCT-116"}, "HCT-15": {"system": "HCT-15"}, "HL-60": {"system": "HL-60"}, "HOP-62": {"system": "HOP-62"}, "HOP-92": {"system": "HOP-92"}, "HT-29": {"system": "HT-29"}, "Hs-578T": {"system": "Hs-578T"}, "IGROV-1": {"system": "IGROV-1"}, "K562": {"system": "K562"}, "KM12": {"system": "KM12"}, "LOX IMVI": {"system": "LOX IMVI"}, "M14": {"system": "M14"}, "MCF7": {"system": "MCF7"}, "MDA-MB-231": {"system": "MDA-MB-231"}, "MDA-MB-435": {"system": "MDA-MB-435"}, "MDA-N": {"system": "MDA-N"}, "MOLT-4": {"system": "MOLT-4"}, "Malme-3M": {"system": "Malme-3M"}, "NCI-H226": {"system": "NCI-H226"}, "NCI-H23": {"system": "NCI-H23"}, "NCI-H460": {"system": "NCI-H460"}, "NCI-H522": {"system": "NCI-H522"}, "NCI/ADR-RES": {"system": "NCI/ADR-RES"}, "OVCAR-3": {"system": "OVCAR-3"}, "OVCAR-4": {"system": "OVCAR-4"}, "OVCAR-5": {"system": "OVCAR-5"}, "OVCAR-8": {"system": "OVCAR-8"}, "PC-3": {"system": "PC-3"}, "RXF 393": {"system": "RXF 393"}, "SF-268": {"system": "SF-268"}, "SF-295": {"system": "SF-295"}, "SF-539": {"system": "SF-539"}, "SK-MEL-28": {"system": "SK-MEL-28"}, "SK-MEL-2": {"system": "SK-MEL-2"}, "SK-MEL-5": {"system": "SK-MEL-5"}, "SK-OV-3": {"system": "SK-OV-3"}, "SN12C": {"system": "SN12C"}, "SNB-19": {"system": "SNB-19"}, "SNB-75": {"system": "SNB-75"}, "SR": {"system": "SR"}, "SW-620": {"system": "SW-620"}, "T47D": {"system": "T47D"}, "TK-10": {"system": "TK-10"}, "U-251": {"system": "U-251"}, "UACC-257": {"system": "UACC-257"}, "UACC-62": {"system": "UACC-62"}, "UO-31": {"system": "UO-31"}},
  "note": "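1) Cells in 96-well plates. 2) Compound, 48 h, 5 concentrations. 3) Linear interpolation between surrounding doses. 4) Unreached endpoint = highest concentration. At the GI50, growth is halved.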 Calls of active or inactive are those of the source. Cut-off read from the data, not from the text of the source: active = GI50 up to about 1.1 µM and inactive = higher.",
  "data": [
    {"smiles": "COc1cc(S(=O)(=O)Nc2nc(-c3ccc(N4C(=O)/C(=C/C=C/c5ccccc5)N=C4c4ccccc4)cc3)cs2)ccc1Cl", "values": [
      {"measurement": "GI50", "setting": "786-0", "value": "> 100 µM (inactive)"},
      {"measurement": "GI50", "setting": "A498", "value": "> 100 µM (inactive)"},
      {"measurement": "GI50", "setting": "A549", "value": "> 100 µM (inactive)"},
      {"measurement": "GI50", "setting": "ACHN", "value": "> 100 µM (inactive)"},
      {"measurement": "GI50", "setting": "BT-549", "value": "45 µM (inactive)"},
      {"measurement": "GI50", "setting": "CAKI-1", "value": "> 100 µM (inactive)"},
      {"measurement": "GI50", "setting": "CCRF-CEM", "value": "58.7 µM (inactive)"},
      {"measurement": "GI50", "setting": "COLO 205", "value": "> 100 µM (inactive)"},
      {"measurement": "GI50", "setting": "DU-145", "value": "> 100 µM (inactive)"},
      {"measurement": "GI50", "setting": "HCT-116", "value": "78.9 µM (inactive)"},
      {"measurement": "GI50", "setting": "HCT-15", "value": "> 100", "unit": "µM"},
      {"measurement": "GI50", "setting": "HL-60", "value": "60.7 µM (inactive)"},
      {"measurement": "GI50", "setting": "HOP-62", "value": "> 100 µM (inactive)"},
      {"measurement": "GI50", "setting": "HOP-92", "value": "28.3 µM (inactive)"},
      {"measurement": "GI50", "setting": "HT-29", "value": "> 100 µM (inactive)"},
      {"measurement": "GI50", "setting": "Hs-578T", "value": "36.2 µM (inactive)"},
      {"measurement": "GI50", "setting": "IGROV-1", "value": "37 µM (inactive)"},
      {"measurement": "GI50", "setting": "K562", "value": "72.3 µM (inactive)"},
      {"measurement": "GI50", "setting": "KM12", "value": "> 100 µM (inactive)"},
      {"measurement": "GI50", "setting": "LOX IMVI", "value": "53.5 µM (inactive)"},
      {"measurement": "GI50", "setting": "M14", "value": "> 100 µM (inactive)"},
      {"measurement": "GI50", "setting": "MCF7", "value": "43 µM (inactive)"},
      {"measurement": "GI50", "setting": "MDA-MB-231", "value": "34.3 µM (inactive)"},
      {"measurement": "GI50", "setting": "MDA-MB-435", "value": "> 100 µM (inactive)"},
      {"measurement": "GI50", "setting": "MDA-N", "value": "> 100 µM (inactive)"},
      {"measurement": "GI50", "setting": "MOLT-4", "value": "69 µM (inactive)"},
      {"measurement": "GI50", "setting": "Malme-3M", "value": "29.2 µM (inactive)"},
      {"measurement": "GI50", "setting": "NCI-H226", "value": "> 100 µM (inactive)"},
      {"measurement": "GI50", "setting": "NCI-H23", "value": "> 100 µM (inactive)"},
      {"measurement": "GI50", "setting": "NCI-H460", "value": "> 100 µM (inactive)"},
      {"measurement": "GI50", "setting": "NCI-H522", "value": "48.2 µM (inactive)"},
      {"measurement": "GI50", "setting": "NCI/ADR-RES", "value": "> 100 µM (inactive)"},
      {"measurement": "GI50", "setting": "OVCAR-3", "value": "> 100 µM (inactive)"},
      {"measurement": "GI50", "setting": "OVCAR-4", "value": "> 100 µM (inactive)"},
      {"measurement": "GI50", "setting": "OVCAR-5", "value": "> 100 µM (inactive)"},
      {"measurement": "GI50", "setting": "OVCAR-8", "value": "> 100 µM (inactive)"},
      {"measurement": "GI50", "setting": "PC-3", "value": "> 100 µM (inactive)"},
      {"measurement": "GI50", "setting": "RXF 393", "value": "37.6 µM (inactive)"},
      {"measurement": "GI50", "setting": "SF-268", "value": "28.9 µM (inactive)"},
      {"measurement": "GI50", "setting": "SF-295", "value": "> 100 µM (inactive)"},
      {"measurement": "GI50", "setting": "SF-539", "value": "> 100 µM (inactive)"},
      {"measurement": "GI50", "setting": "SK-MEL-28", "value": "81.3 µM (inactive)"},
      {"measurement": "GI50", "setting": "SK-MEL-2", "value": "78.3 µM (inactive)"},
      {"measurement": "GI50", "setting": "SK-MEL-5", "value": "53 µM (inactive)"},
      {"measurement": "GI50", "setting": "SK-OV-3", "value": "> 100 µM (inactive)"},
      {"measurement": "GI50", "setting": "SN12C", "value": "> 100 µM (inactive)"},
      {"measurement": "GI50", "setting": "SNB-19", "value": "99.3 µM (inactive)"},
      {"measurement": "GI50", "setting": "SNB-75", "value": "93.1 µM (inactive)"},
      {"measurement": "GI50", "setting": "SR", "value": "58.3 µM (inactive)"},
      {"measurement": "GI50", "setting": "SW-620", "value": "> 100 µM (inactive)"},
      {"measurement": "GI50", "setting": "T47D", "value": "48.1 µM (inactive)"},
      {"measurement": "GI50", "setting": "TK-10", "value": "> 100 µM (inactive)"},
      {"measurement": "GI50", "setting": "U-251", "value": "53.1 µM (inactive)"},
      {"measurement": "GI50", "setting": "UACC-257", "value": "> 100 µM (inactive)"},
      {"measurement": "GI50", "setting": "UACC-62", "value": "35 µM (inactive)"},
      {"measurement": "GI50", "setting": "UO-31", "value": "> 100 µM (inactive)"}
    ]}
  ]
}
